We go through one compound from paper PMC6108835, “Target-Based Discovery of an Inhibitor of the Regulatory Phosphatase PPP1R15B” (Cell, 2018).

Series [1] has as its system brains of R15a −/− mice. Briefly: Monitoring translation rates in vivo, brains of R15a −/− mice. On the set-up: species or system mouse. The conditions noted are these: 40 mg/kg. As for the experimental part: 3 months old treatment- and test-naive C57BL/6J males were treated as indicated. 30 min before the end of treatment mice were injected intraperitoneally with 0.75 mCi/kg radioactive label – 75% ^35S-methionine + 25% ^35S-cystine (Hartmann Analytic). At the end of treatment mice were culled by cervical dislocation, brains were extracted, fresh-frozen in liquid nitrogen and kept at −80°C until use. Tissue was homogenized and lysed in Laemmli Buffer (1 mL for 0.5 mg tissue). Lysates were boiled at 95°C for 5 min, sonicated and resolved on Bolt SDS-PAGE 4%–12% Bis-Tris gels (ThermoFisher Scientific). Gels were then stained with InstantBlue (Expedeon) and after the gels had been imaged they were transferred to a 20% ethanol, 7% acetic acid, 4% glycerol solution for 10 min. This was to prevent the gels from cracking while drying. The gels were transferred to filter paper and dried using a gel dryer. The gels were then exposed to a Storage Phosphor Screen (GE Healthcare) and analyzed by phosphorimaging using a Typhoon Imager Scanner (GE Healthcare).

Series [2] has as its system HeLa cells. As to the kind of experiment: Monitoring cell viability (CellTox Green, IncuCyte). Type of series: cell-based. As for the experimental part: HeLa cells (40,000 cells/mL) were plated in 96-well plates (0.1 mL/well). The following day the cells were treated with different concentrations of Raphin1, in triplicate, as indicated and incubated at 37°C for 48 hr. To monitor cell death 1:2,000 dilution of the CellTox Green Dye (Promega) was added to the medium. The growth of the cells was monitored over time and pictures taken every 2 hr (two per well) with the IncuCyte ZOOM system (Essen BioScience). The default software parameters for a 96-well plate (Corning) with a 10x objective were used for imaging and the images were analyzed by the IncuCyte ZOOM software (Essen BioScience). The software was used to calculate the confluency from the two non-overlapping images of each well at each time point. The phase confluency refers to the percentage of the image area that is occupied by cells. The green confluency refers to the percentage of the image area that fluoresces green. The CellTox Green Dye (Promega) preferentially stains dead cells’ DNA, but is excluded from viable cells. To assess the effect of Raphin1 on cell viability, the percentage of dead cells was calculated as follows: %ofdeadcells=Greenconfluency(%)atXhours/Phaseconfluency(%)atXhours×100

Series [3] can be described thus: Pharmacokinetics after single oral administration in mice. In kind it is in vivo. The conditions noted are these: mouse. On the procedure:
The acetate salts of Raphin1 or GBZ were dissolved in water and sonicated for 10 min. The solution was aliquoted and kept at −20°C until use. Once thawed a tube was kept at 4°C and used within 24 hr. The compounds were administered by oral gavage.
Raphin1 was administered at 2 mg/kg (unless otherwise specified). Mice received a single dose or were treated chronically – one time per day. Control mice were treated with vehicle (water) only.
Pharmacokinetics studies were performed by XenoGesis Ldt. Raphin1 was administrated orally in 6 weeks old treatment- and test-naive C57BL/6J males. Plasma samples were prepared by protein precipitation with methanol containing internal standards. Tissues were weighed and prepared by homogenization (1:3 in phosphate buffered saline) and protein precipitated with methanol containing internal standard. Following the addition of methanol, plasma and tissue samples were placed at −20°C for ≥ 1 hr (or overnight) to allow proteins to precipitate. The samples were then centrifuged at 2,500 x g (3,400 rpm) for 20 min at 4°C. The supernatants were analyzed by LC-MS/MS.

Series [4] has as its target Adrenergic α2A (FAST-006A) receptor (Homo sapiens, UniProt P08913). Briefly: α2-adrenergic activity in cells expressing recombinant receptor (Euroscreen). In kind it is cell-based. The conditions noted are these: agonist testing, also videos of mice at 10 mg/kg. On the procedure: α2-adrenergic activity was measured by Euroscreen. Adrenergic α2A (FAST-006A) receptor cells grown 18 hr prior to the test in media without antibiotics were detached by gentle flushing with PBS-EDTA (5 mM EDTA), recovered by centrifugation and re-suspended in “assay buffer” (DMEM/HAM’s F12 with HEPES + 0.1% BSA protease free). Cells were incubated at RT for at least 4 hr with Coelenterazine h (Molecular Probes). Dose response curves with the reference compounds were performed before testing the compounds. For agonist testing, 50 μL of cell suspension was mixed with 50 μL of test compound or reference agonist plated in a 96-well plate. The resulting emission of light was recorded using the Hamamatsu Functional Drug Screening System 6000 (FDSS 6000). Agonist activity of test compound was expressed as a percentage of the activity of the reference agonist at its EC100 concentration.

The target in series [5] is T1, R15A^325–636 (Homo sapiens, UniProt O75807).
T1 construct: made in house; host or cells: E. coli BL21-Gold (DE3) pLysS
T1 sequence (O75807 325-636, stated change not applied): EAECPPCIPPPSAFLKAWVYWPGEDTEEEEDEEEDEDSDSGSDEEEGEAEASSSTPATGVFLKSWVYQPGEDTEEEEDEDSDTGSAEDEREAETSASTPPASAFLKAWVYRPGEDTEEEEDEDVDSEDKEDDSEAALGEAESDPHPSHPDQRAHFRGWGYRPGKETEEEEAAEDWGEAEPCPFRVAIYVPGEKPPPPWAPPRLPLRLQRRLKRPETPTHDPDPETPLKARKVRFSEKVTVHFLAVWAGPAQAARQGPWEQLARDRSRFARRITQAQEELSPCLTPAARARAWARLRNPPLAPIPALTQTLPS
Briefly: eIF2α pull down with MBP-tagged R15A. Type of series: biochemical. The conditions noted are these: Raphin1 200 μM, P-eIF2α 1 μM. On the procedure: Recombinant eIF2α was produced as described in [Ito et al. (2004)] and pull down experiments were carried out as previously described ([Carrara et al., 2017]). Amylose beads (New England BioLabs) were pre-equilibrated with interaction buffer (50 mM Tris pH 7.4, 200 mM NaCl, 0.05% Tween20). 20 μL amylose beads were incubated with purified MBP-tagged R15s (200 nM), P-eIF2α (1 μM) as appropriate, plus 200 μM Raphin1, or DMSO vehicle in a total volume of 200 μL. Input samples (5%) was removed at this step, and added to 4% SDS-Laemmli sample buffer. Beads were incubated for 10 min at 4°C with 20 rpm gentle rotation. The beads were washed 5 × 1 mL with interaction buffer, transferred to a fresh tube and finally resuspended with 50 μL 4% SDS-Laemmli sample buffer. Eluded beads were boiled and then run on 4%–12% NuPAGE Bis-Tris gels (ThermoFisher Scientific). Anti-MBP HRP (New England BioLabs (#E8038); 1:5,000) (to probe for R15s) and anti-eIF2α (AbCam (#ab26197); 1:1,000) antibodies were used for immunoblotting analyses of samples.

Adrenergic α2A (FAST-006A) receptor, sequence (P08913 whole entry): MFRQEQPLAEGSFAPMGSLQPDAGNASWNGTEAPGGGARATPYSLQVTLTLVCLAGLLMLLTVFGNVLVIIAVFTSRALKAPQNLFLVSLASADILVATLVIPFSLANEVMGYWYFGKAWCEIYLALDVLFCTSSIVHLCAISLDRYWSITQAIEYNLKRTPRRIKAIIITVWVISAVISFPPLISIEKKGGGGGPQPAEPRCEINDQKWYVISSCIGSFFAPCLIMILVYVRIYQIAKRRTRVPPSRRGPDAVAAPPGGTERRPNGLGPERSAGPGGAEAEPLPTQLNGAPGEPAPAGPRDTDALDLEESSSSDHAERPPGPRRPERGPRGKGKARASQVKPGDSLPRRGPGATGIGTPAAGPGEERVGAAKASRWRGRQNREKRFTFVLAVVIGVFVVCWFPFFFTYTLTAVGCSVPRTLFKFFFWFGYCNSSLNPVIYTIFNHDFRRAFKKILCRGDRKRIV

One may read the half-life as the time in which the quantity being followed falls by half. A lower half-life goes with fast loss. With `[H]/N=C(\N)NN=Cc1cccc(Cl)c1Cl` [Raphin1, (E)-2-(2,3-dichlorobenzylidene)hydrazine-1-carboximidamide], the “Translation recovery in the brains (in words)” value in series [1] is on record as “recovery was reduced”. For the same compound, the “Toxicity to cells (% of dead cells)” value in series [2] (20 μM) is “toxic”; in series [2] (concentration corresponding to brain level after 2 mg/kg (∼1.5 μM), continuously applied for 48 hr) it was “not toxic”. In series [3] (male, C57BL/6J, brain, single oral dose 2 mg/kg), this compound showed a half-life of 4 to 6 h. For the same compound, the “Oral bioavailability (in words)” value in series [3] is “orally bioavailable”. Further, the Blood-brain barrier crossing result in series [3] (single oral dose 2 mg/kg) is “crossed the blood-brain barrier”. In addition, in series [3] (single oral dose 2 mg/kg), the “Peak concentration in the brain” value is roughly 1.5 µM. Besides, the α2-adrenergic activity result in series [4] is reported as “lacked”. Also, the “Recruitment of eIF2α to R15A” value in series [5] is “no such effect”.
